According to US20240252488A1 (KOREA RESEARCH INSTITUTE OF CHEMICAL TECHNOLOGY, priority 2020, published 2024):

What was measured:
FADD−/− Jurkat cells = experiment: Necroptosis inhibition assay, TNF-α-induced necroptosis (CellTiter-Glo 2.0); assay type: cell-based, human; details: TNF-α 15 ng/mL; for Necroptosis inhibition assay (Rescue %) 1 μM: compound 1 μM; for Necroptosis inhibition assay (Rescue %) 10 μM: compound 10 μM
In short: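 Cmpd 0.1/1/10 μM final, 30 min RT preincubation; TNF-α 15 ng/mL final; 20–24 h, 37° C, 5% CO2. Readout: ATP luminescence (reagent 1:3 in PBS), 0.5 s/well. Cytotoxicity and % necroptosis inhibition calculated from signal.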

MLKL [1] = biological target: T1, MLKL (Homo sapiens, UniProt Q8NB16); experiment: MLKL degradation assay in HepG2 cell line (western blot); assay type: cell-based; design: endogenous in cells; host or cells: HepG2 or HaCaT; details: cell line not given; for Degradation assay (Degradation %) 1 μM: compound 1 μM; for Degradation assay (Degradation %) 10 μM: compound 10 μM
T1 sequence (Q8NB16 1-471): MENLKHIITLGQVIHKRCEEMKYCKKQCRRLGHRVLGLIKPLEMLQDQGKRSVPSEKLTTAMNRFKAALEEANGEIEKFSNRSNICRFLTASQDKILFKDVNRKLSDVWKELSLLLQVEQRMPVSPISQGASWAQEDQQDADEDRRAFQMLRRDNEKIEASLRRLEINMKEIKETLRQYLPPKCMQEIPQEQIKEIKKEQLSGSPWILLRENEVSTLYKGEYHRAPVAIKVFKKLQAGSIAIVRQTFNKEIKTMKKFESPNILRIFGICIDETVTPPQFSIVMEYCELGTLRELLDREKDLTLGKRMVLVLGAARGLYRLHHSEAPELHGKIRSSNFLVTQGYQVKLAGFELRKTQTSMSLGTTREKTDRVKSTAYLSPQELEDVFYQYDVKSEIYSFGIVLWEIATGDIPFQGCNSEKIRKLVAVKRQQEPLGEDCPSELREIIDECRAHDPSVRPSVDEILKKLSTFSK
In short: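 HepG2, cpd final 1 or 10 μM, 20-24 h, 37 °C/5% CO2; RIPA lysis, BCA-normalized, 10-15 μg/lane SDS-PAGE, western blot, ECL read-out.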

MLKL [2] = biological target: T1, MLKL; experiment: Measurement of binding affinity with MLKL receptor (competitive binding assay, Kd); design: made in house; host or cells: HEK 293 cell line (T7 phage in E. coli BL21-derived host is also described)
In short: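 MLKL was produced in HEK 293 cells and tagged with DNA for detection. Liganded beads were blocked with excess biotin and washed to cut non-specific binding, then compounds (111× DMSO stocks, 0.9% DMSO in assay) competed for binding. Eluate kinase was measured by qPCR for Kd.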

Nc1ncc(-c2cnn(C3CCN(CCCN4CCN(C(=O)CCc5ccc6c(c5)CN(C5CCC(=O)NC5=O)C6=O)CC4)CC3)c2)nc1C(=O)O[C@@H](C(=O)Nc1ccc(F)cc1)c1ccccc1 (stereo partly drawn) [TDH-476, (R)-2-((4-fluorophenyl)amino)-2-oxo-1-phenylethyl 3-amino-6-(1-(1-(3-(4-(3-(2-(2,6-dioxopiperidin-3-yl)-1-oxoisoindolin-5-yl)propanoyl)piperazin-1-yl)propyl)piperidin-4-yl)-1H-pyrazol-4-yl)pyrazine-2-carboxylate]
Necroptosis inhibition assay (Rescue %) 1 μM (FADD−/− Jurkat cells; FADD−/− Jurkat cells): 47.52% | Necroptosis inhibition assay (Rescue %) 10 μM (FADD−/− Jurkat cells; FADD−/− Jurkat cells): 25.23% | Degradation assay (Degradation %) 1 μM (MLKL [1]): 87.94% | Degradation assay (Degradation %) 10 μM (MLKL [1]): 73.34% | Kd (MLKL [2]): 0.32 nM

Nc1ncc(-c2cnn(C3CCN(CCC4CCN(C(=O)C5CN(c6ccc7nnn(C8CCC(=O)NC8=O)c(=O)c7c6)C5)CC4)CC3)c2)nc1C(=O)O[C@@H](C(=O)Nc1ccc(F)cc1)c1ccccc1 (stereo partly drawn) [TDH-333, (R)-2-((4-fluorophenyl)amino)-2-oxo-1-phenylethyl 3-amino-6-(1-(1-(2-(1-(1-(3-(2,6-dioxopiperidin-3-yl)-4-oxo-3,4-dihydrobenzo[d][1,2,3]triazin-6-yl)azetidine-3-carbonyl)piperidin-4-yl)ethyl)piperidin-4-yl)-1H-pyrazol-4-yl)pyrazine-2-carboxylate]
Necroptosis inhibition assay (Rescue %) 1.1 μM (FADD−/− Jurkat cells; compound 1.1 µM): 58.92 (1.1µM) % | Necroptosis inhibition assay (Rescue %) 10 μM (FADD−/− Jurkat cells): 36.65% | Degradation assay (Degradation %) 1 μM (MLKL [1]): 57.66% | Degradation assay (Degradation %) 10 μM (MLKL [1]): 71.32% | Kd (MLKL [2]): 4.1 nM

Nc1ncc(-c2cnn(C3CCN(C(=O)COC4CCN(c5ccc6c(c5)C(=O)N(C5CCC(=O)NC5=O)C6=O)CC4)CC3)c2)nc1C(=O)O[C@@H](C(=O)Nc1ccc(F)cc1)c1ccccc1 (stereo partly drawn) [TDH-400, (R)-2-((4-fluorophenyl)amino)-2-oxo-1-phenylethyl 3-amino-6-(1-(1-(2-((1-(2-(2,6-dioxopiperidin-3-yl)-1,3-dioxoisoindolin-5-yl)piperidin-4-yl)oxy)acetyl)piperidin-4-yl)-1H-pyrazol-4-yl)pyrazine-2-carboxylate]
Necroptosis inhibition assay (Rescue %) 1 μM (FADD−/− Jurkat cells): 27.80% | Necroptosis inhibition assay (Rescue %) 10 μM (FADD−/− Jurkat cells): 28.44% | Degradation assay (Degradation %) 1 μM (MLKL [1]): 82.22% | Degradation assay (Degradation %) 10 μM (MLKL [1]): 74.77% | Kd (MLKL [2]): 4.4 nM

Nc1ncc(-c2cnn([C@H]3CCN(CCOCCOCCNC(=O)COc4cccc5c4C(=O)N(C4CCC(=O)NC4=O)C5=O)C3)c2)nc1C(=O)OC(C(=O)Nc1ccc(F)cc1)c1ccccc1 (stereo partly drawn) [TDH-265, 2-((4-fluorophenyl)amino)-2-oxo-1-phenylethyl 3-amino-6-(1-((3S)-1-(2-(2-(2-(2-((2-(2,6-dioxopiperidin-3-yl)-1,3-dioxoisoindolin-4-yl)oxy)acetamido)ethoxy)ethoxy)ethyl)pyrrolidin-3-yl)-1H-pyrazol-4-yl)pyrazine-2-carboxylate]
Necroptosis inhibition assay (Rescue %) 1 μM (FADD−/− Jurkat cells): 19.18% | Necroptosis inhibition assay (Rescue %) 10 μM (FADD−/− Jurkat cells): 41.68% | Degradation assay (Degradation %) 1 μM (MLKL [1]): 11.99% | Degradation assay (Degradation %) 10 μM (MLKL [1]): 49.83% | Kd (MLKL [2]): 4.4 nM

Nc1ncc(-c2cnn(C3CCN(CC4CCN(CC5CCN(C(=O)C6CCN(C7=CC(=O)N(C8CCC(=O)NC8=O)C7=O)CC6)CC5)CC4)CC3)c2)nc1C(=O)O[C@@H](C(=O)Nc1ccc(F)cc1)c1ccccc1 (stereo partly drawn) [TDH-527, (R)-2-((4-fluorophenyl)amino)-2-oxo-1-phenylethyl 3-amino-6-(1-(1-((1-((1-(1-(1-(2,6-dioxopiperidin-3-yl)-2,5-dioxo-2,5-dihydro-1H-pyrrol-3-yl)piperidine-4-carbonyl)piperidin-4-yl)methyl)piperidin-4-yl)methyl)piperidin-4-yl)-1H-pyrazol-4-yl)pyrazine-2-carboxylate]
Necroptosis inhibition assay (Rescue %) 1 μM (FADD−/− Jurkat cells; FADD−/− Jurkat cells): 42.79% | Necroptosis inhibition assay (Rescue %) 10 μM (FADD−/− Jurkat cells; FADD−/− Jurkat cells): −12.98% | Degradation assay (Degradation %) 1 μM (MLKL [1]): 71.10% | Degradation assay (Degradation %) 10 μM (MLKL [1]): 42.46% | Kd (MLKL [2]): 1.2 nM

Nc1ncc(-c2cnn(C3CCN(C(=O)c4cn(C5CCN(C(=O)COc6ccc7c(c6)C(=O)N(C6CCC(=O)NC6=O)C7=O)CC5)cn4)CC3)c2)nc1C(=O)O[C@@H](C(=O)Nc1ccc(F)cc1)c1ccccc1 (stereo partly drawn) [TDH-355, (R)-2-((4-fluorophenyl)amino)-2-oxo-1-phenylethyl 3-amino-6-(1-(1-(1-(1-(2-((2-(2,6-dioxopiperidin-3-yl)-1,3-dioxoisoindolin-5-yl)oxy)acetyl)piperidin-4-yl)-1H-imidazole-4-carbonyl)piperidin-4-yl)-1H-pyrazol-4-yl)pyrazine-2-carboxylate]
Necroptosis inhibition assay (Rescue %) 1 μM (FADD−/− Jurkat cells): 22.40% | Necroptosis inhibition assay (Rescue %) 10 μM (FADD−/− Jurkat cells): 26.54% | Degradation assay (Degradation %) 1 μM (MLKL [1]): 59.51% | Degradation assay (Degradation %) 10 μM (MLKL [1]): 61.42% | Kd (MLKL [2]): 1.9 nM

COc1ccc(C(=O)N2CCC(C(=O)N3CCC(CCN4CCC(CN5CCC(n6cc(-c7cnc(N)c(C(=O)O[C@@H](C(=O)Nc8ccc(F)cc8)c8ccccc8)n7)cn6)CC5)CC4)CC3)CC2)cc1N1CCC(=O)NC1=O [TDH-502, (R)-2-((4-fluorophenyl)amino)-2-oxo-1-phenylethyl 3-amino-6-(1-(1-((1-(2-(1-(1-(3-(2,4-dioxotetrahydropyrimidin-1(2H)-yl)-4-methoxybenzoyl)piperidine-4-carbonyl)piperidin-4-yl)ethyl)piperidin-4-yl)methyl)piperidin-4-yl)-1H-pyrazol-4-yl)pyrazine-2-carboxylate]
Necroptosis inhibition assay (Rescue %) 1 μM (FADD−/− Jurkat cells; FADD−/− Jurkat cells): 54.75% | Necroptosis inhibition assay (Rescue %) 10 μM (FADD−/− Jurkat cells; FADD−/− Jurkat cells): 66.18% | Degradation assay (Degradation %) 1 μM (MLKL [1]): 85.39% | Degradation assay (Degradation %) 10 μM (MLKL [1]): 91.54% | Kd (MLKL [2]): 0.42 nM

COc1ccc(C(=O)N2CCC(CN3CCC(n4cc(-c5cnc(N)c(C(=O)O[C@@H](C(=O)Nc6ccc(F)cc6)c6ccccc6)n5)cn4)CC3)CC2)cc1N1CCC(=O)NC1=O [TDH-445, (R)-2-((4-fluorophenyl)amino)-2-oxo-1-phenylethyl 3-amino-6-(1-(1-((1-(3-(2,4-dioxotetrahydropyrimidin-1(2H)-yl)-4-methoxybenzoyl)piperidin-4-yl)methyl)piperidin-4-yl)-1H-pyrazol-4-yl)pyrazine-2-carboxylate]
Necroptosis inhibition assay (Rescue %) 1 μM (FADD−/− Jurkat cells; FADD−/− Jurkat cells): 12.07% | Necroptosis inhibition assay (Rescue %) 10 μM (FADD−/− Jurkat cells; FADD−/− Jurkat cells): 19.83% | Degradation assay (Degradation %) 1 μM (MLKL [1]): 20.29% | Degradation assay (Degradation %) 10 μM (MLKL [1]): 27.38% | Kd (MLKL [2]): 0.6 nM

Nc1ncc(-c2cnn(C3CCN(C(=O)COC4CCN(C(=O)CNc5ccc6c(c5)C(=O)N(C5CCC(=O)NC5=O)C6=O)CC4)CC3)c2)nc1C(=O)O[C@@H](C(=O)Nc1ccc(F)cc1)c1ccccc1 (stereo partly drawn) [TDH-396, (R)-2-((4-fluorophenyl)amino)-2-oxo-1-phenylethyl 3-amino-6-(1-(1-(2-((1-((2-(2,6-dioxopiperidin-3-yl)-1,3-dioxoisoindolin-5-yl)glycyl)piperidin-4-yl)oxy)acetyl)piperidin-4-yl)-1H-pyrazol-4-yl)pyrazine-2-carboxylate]
Necroptosis inhibition assay (Rescue %) 1 μM (FADD−/− Jurkat cells): 53.20% | Necroptosis inhibition assay (Rescue %) 10 μM (FADD−/− Jurkat cells): 46.28% | Degradation assay (Degradation %) 1 μM (MLKL [1]): 3.42% | Degradation assay (Degradation %) 10 μM (MLKL [1]): 88.49% | Kd (MLKL [2]): 4.2 nM

Nc1ncc(-c2cnn([C@H]3CCN(CCOCCOCCNC(=O)COc4ccc5c(c4)C(=O)N(C4CCC(=O)NC4=O)C5=O)C3)c2)nc1C(=O)OC(C(=O)Nc1ccc(F)cc1)c1ccccc1 (stereo partly drawn) [TDH-266, 2-((4-fluorophenyl)amino)-2-oxo-1-phenylethyl 3-amino-6-(1-((3S)-1-(2-(2-(2-(2-((2-(2,6-dioxopiperidin-3-yl)-1,3-dioxoisoindolin-5-yl)oxy)acetamido)ethoxy)ethoxy)ethyl)pyrrolidin-3-yl)-1H-pyrazol-4-yl)pyrazine-2-carboxylate]
Necroptosis inhibition assay (Rescue %) 1 μM (FADD−/− Jurkat cells): 35.24% | Necroptosis inhibition assay (Rescue %) 10 μM (FADD−/− Jurkat cells): 68.2% | Degradation assay (Degradation %) 1 μM (MLKL [1]): 18.14% | Degradation assay (Degradation %) 10 μM (MLKL [1]): 40.08% | Kd (MLKL [2]): 6 nM

Nc1ncc(-c2cnn([C@@H]3CCN(CC4CCN(C(=O)COc5ccc6c(c5)C(=O)N(C5CCC(=O)NC5=O)C6=O)CC4)C3)c2)nc1C(=O)OC(C(=O)Nc1ccc(F)cc1)c1ccccc1 (stereo partly drawn) [TDH-288, 2-((4-fluorophenyl)amino)-2-oxo-1-phenylethyl 3-amino-6-(1-((3R)-1-((1-(2-((2-(2,6-dioxopiperidin-3-yl)-1,3-dioxoisoindolin-5-yl)oxy)acetyl)piperidin-4-yl)methyl)pyrrolidin-3-yl)-1H-pyrazol-4-yl)pyrazine-2-carboxylate]
Necroptosis inhibition assay (Rescue %) 1 μM (FADD−/− Jurkat cells): 70.93% | Necroptosis inhibition assay (Rescue %) 10 μM (FADD−/− Jurkat cells): 66.54% | Degradation assay (Degradation %) 1 μM (MLKL [1]): 75.31% | Degradation assay (Degradation %) 10 μM (MLKL [1]): 89.16% | Kd (MLKL [2]): 5.2 nM
